The values below come from publication PMC12915096, “AI‐Driven Acceleration of Fluorescence Probe Discovery” (Advanced Science, 2025).

What is called pKd is the Kd on a negative log10 scale, so that one unit is a factor of ten. A high value points to a small Kd. The pIC50 is the negative decadic logarithm of the IC50, by convention in mol/L. What is called pKi is the Ki on a negative log10 scale, so that one unit is a factor of ten.

For series [1], the target named is T1, tau aggregates (Homo sapiens, UniProt P10636).
T1 construct: purchased QYAOBIO
T1 sequence (P10636 1-441 isoform P10636-8): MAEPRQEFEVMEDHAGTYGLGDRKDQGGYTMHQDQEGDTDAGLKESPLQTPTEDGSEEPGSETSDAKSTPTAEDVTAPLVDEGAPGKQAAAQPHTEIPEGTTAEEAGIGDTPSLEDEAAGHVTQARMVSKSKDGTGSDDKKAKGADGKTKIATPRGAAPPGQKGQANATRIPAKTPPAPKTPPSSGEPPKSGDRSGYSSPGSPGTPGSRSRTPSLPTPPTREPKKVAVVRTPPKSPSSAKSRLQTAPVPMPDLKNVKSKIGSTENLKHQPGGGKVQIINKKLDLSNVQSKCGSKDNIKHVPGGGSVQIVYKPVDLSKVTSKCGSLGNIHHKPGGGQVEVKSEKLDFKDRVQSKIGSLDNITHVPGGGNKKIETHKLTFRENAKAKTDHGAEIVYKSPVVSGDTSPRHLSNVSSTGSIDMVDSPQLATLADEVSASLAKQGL
The series is described as follows: Fluorescence turn-on response / spectral assay with tau aggregates. Type of series: binding. As to the method: (§1) To evaluate the fluorescence turn‐on responses to targets, protein (2 µM) were incubated with probe solutions (2 µM, PBS containing 10% DMSO) for 60 min at room temperature. For probe B3, specific experiments involved co‐incubation of 5 µM B3 with 10 µM TDP‐43 aggregates for 60 min.

Series [2] can be described thus: Photostability evaluation under continuous excitation. Type of series: physicochemical. To be noted: 3 h illumination, PBS with 10% DMSO. As to the method: For photostability evaluation, PE859, 859‐1, or 859‐1 were diluted to 10 µM in PBS containing 10% DMSO. The solutions were loaded into a fluorescence spectrometer and the fluorescent intensity at maximum emission wavelength was recorded under continuous excitation for 180 min.

The nature of series [3]: Photophysical property characterization (absorption/emission spectra, quantum yield). Type of series: physicochemical. To be noted: for λAbs b, spectra assays data / λEm b, spectra assays data / ε: acetonitrile (MeCN); for λAbs b, spectra assays data / λEm b, spectra assays data: 10 µM, Extended Data Table 1; for ε: in M-1·cm-1 (unit assumed). Here is the method: For absorption and emission spectra measurements, the molecules were diluted to 10 µM in various solvents, including EtOH, DMSO, MeCN, H2O, and MeOH. Prior to analysis, the prepared samples were equilibrated at 25°C for 5 min to ensure consistent conditions. Subsequently, their absorption and emission spectra were measured. The absolute fluorescence quantum yield of these probes was measured using the FLS1000 Photoluminescence Spectrometer (Edinburgh Instruments Ltd.).

A short description of series [4]: Selectivity evaluation (fluorescence response to non-target analytes). To be noted: probe 1 µM, analytes 2 µM, 60 min. Here is the method:
For selectivity evaluation, the probes were diluted to a final concentration of 1 µM and treated with 2 µM of various analytes. After 60 min of incubation at room temperature, fluorescence intensity was recorded at the specific excitation and emission wavelengths for each probe. The maximum emission wavelength intensity was plotted against the respective analytes.

Series [5] has as its target tau aggregates in AD brain sections (Homo sapiens, UniProt P10636). The series can be described thus: Pathological staining, colocalization with anti-tau antibody. Here is the method:
(§2) Human brain tissues of AD or ALS patients and human neuroblastoma tissues were immersed in xylene three times for 5 min to remove paraffin, followed by two 10 min washes with a series of diluted alcohols (100, 90%, 70%, and 50% ethanol in dd water, v/v). Following PBS washing, heat‐mediated antigen retrieval was per‐ formed in 10 mM citrate buffer (pH 9.0) using a temperature‐gradient protocol: samples were gradually heated to boiling point through sequential low‐to‐high intensity thermal exposure (total 15 min duration), followed by natural cooling to ambient temperature. […] To avoid the fluorescence overlap between antibody staining and probe labeling, specific secondary antibodies were selected. […]
(§3) The fluorescence images of tissues were acquired by a scanning microscope (KF‐FL‐020, KFBIO).
(§4) All experiments were conducted over 3–5 independent experiments, and error bars represent the S.E.M across these runs. […] Statistical analysis was performed using GraphPad Prism 8.3.0, with significance determined by one‐way ANOVA followed by Tukey's or Dunnett's post hoc tests. […] Colocalization analysis was performed using the Pearson's correlation coefficient (PCC) calculated via ImageJ software.

Series [6] deals with T1, tau aggregates. The series is described as follows: Dissociation constant measurement by fluorescence titration. Format: binding. To be noted: tau aggregates titrated with probe, 37°C 1 h. Here is the method:
The human recombinant tau protein (1 mg, QYAOBIO) was dissolved in PBS containing 110 µM heparin sodium to a final concentration of 55 µM. The solution was shake vigorously (100 rpm, Crystal IS‐RDV1) at 37°C for 72 h. Similarly, the human recombinant TDP‐43 protein (0.9 mg, Sangon Biotech) was dissolved in 1 mL Tris buffer (50 mM Tris, 300 mM NaCl, 10% Glycerol, pH 8.0) and was shake vigorously (200 rpm, Crystal IS‐RDV1) at 37°C for 48 h. Aggregates formation was monitored and verified using ThT fluorescence assay. The resulting aggregates was divided into aliquots and stored at −20°C before use.
To 1 µM protein solution in PBS containing 10% DMSO, different concentrations of probe was added (final concentration 0, 1, 2, 5, 8, 10, 20, 50, 80, 100, 200, 500, 800, and 1000 nM). The mixture was dispensed into 96‐well plates and incubated at 37°C for 1 h. The fluorescence intensity of the samples was recorded at maximum emission wavelength of probe by using a microplate reader (PerkinElmer, VICTOR Nivo^TM). Dose‐ response curves were generated by plotting fluorescence intensity against probe concentration, and equilibrium dissociation constants were calculated via nonlinear regression analysis in GraphPad Prism.

Series [7] addresses T2, TDP-43 aggregates in ALS brain sections (Homo sapiens, UniProt Q13148).
T2 construct: from tissue; host or cells: paraffin sections of human ALS patient brain
The series is described as follows: Pathological staining, colocalization with anti-TDP-43 antibody. To be noted: brain sections from an ALS patient. As to the method: as §2, §3, §4

The next series deals with T3, TDP-43 aggregates (Homo sapiens, UniProt Q13148).
T3 construct: purchased Sangon Biotech
T3 sequence (Q13148 whole entry): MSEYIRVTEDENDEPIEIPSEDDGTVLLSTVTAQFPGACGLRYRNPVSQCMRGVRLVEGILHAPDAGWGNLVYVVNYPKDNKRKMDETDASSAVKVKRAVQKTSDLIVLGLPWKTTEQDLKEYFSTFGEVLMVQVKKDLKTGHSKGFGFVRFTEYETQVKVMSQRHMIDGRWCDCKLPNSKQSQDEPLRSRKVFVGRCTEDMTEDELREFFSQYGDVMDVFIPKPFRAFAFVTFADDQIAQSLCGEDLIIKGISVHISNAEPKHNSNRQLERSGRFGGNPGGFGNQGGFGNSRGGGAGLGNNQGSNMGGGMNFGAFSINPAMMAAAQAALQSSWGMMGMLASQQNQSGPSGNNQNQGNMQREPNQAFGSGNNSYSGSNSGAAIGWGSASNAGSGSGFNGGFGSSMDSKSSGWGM
The series is described as follows: Fluorescence turn-on response / spectral assay with TDP-43 aggregates. Type of series: binding. As to the method:
as §1

A further series relates to tau. To be noted: previous reports; ref [36], [37], [38]; cited from earlier work.
In series [8] the target is T4, BCL-2 in U2932 and SU-DHL-6 cells (Homo sapiens, UniProt P10415).
T4 construct: endogenous in cells; host or cells: U2932 and SU-DHL-6
T4 sequence (P10415 whole entry): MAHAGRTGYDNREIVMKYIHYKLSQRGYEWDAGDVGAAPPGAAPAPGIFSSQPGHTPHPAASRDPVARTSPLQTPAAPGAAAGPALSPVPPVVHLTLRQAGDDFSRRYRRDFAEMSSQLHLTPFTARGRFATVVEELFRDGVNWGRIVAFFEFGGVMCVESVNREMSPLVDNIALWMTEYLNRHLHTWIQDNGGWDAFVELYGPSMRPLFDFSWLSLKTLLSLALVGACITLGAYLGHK
The series is described as follows: Cell imaging with anti-BCL-2 co-staining. To be noted: U2932 and SU-DHL-6, 5 µM obatoclax. Type of series: cell-based. As to the method:
Cells of the logarithmic growth phase were taken and transferred them to centrifuge tubes (5 × 10^4 cells/mL). After centrifugation, the culture medium was discarded. Cells were washed once with PBS, centrifuged, and the supernatant aspirated. One milliliter of ice methanol was added, followed by gentle resuspension and fixation for 30 min. After centrifugation, the supernatant was discarded, and cells were washed twice with PBS. Subsequently, 500 µL of 5% BSA blocking solution was added, and cells were gently resuspended before transfer to a 35‐mm confocal dish for sealing and incubation at room temperature for 1 h. The cell suspension was then added into a centrifuge tube, centrifuged to remove blocking solution, and resuspended in 500 µL of primary antibody solution (Proteintech, 12789‐1‐AP, 1:500). Cells were transferred to a confocal dish and incubated overnight at 4°C. After centrifugation to remove primary antibody, cells were washed twice with PBS. Next, 500 µL of secondary antibody (Beyotime, A0468, 1:500) was added, followed by incubation at room temperature for 1 h. Following centrifugation, the cells were washed twice with PBS and stained with 500 µL of DAPI solution (Beyotime, C1006) for 10 min at room temperature. […] After centrifugation, cells were washed twice with PBS, resuspended in 1 mL PBS, transferred to a confocal dish, and imaged with a laser confocal microscope.

Series [9] concerns the target T5, BCL-2 (Homo sapiens, UniProt P10415). To be noted: previous reports; ref [36], [37], [38]; cited from earlier work.
Series [10] concerns SU-DHL-6 lymphoma xenografts. The series is described as follows: Tumor model ex vivo fluorescence imaging. Format: in vivo, mice. To be noted: 10 mg/kg i.v., 4 h post-injection. Here is the method:
SU-DHL-6 cells were suspended in 100 μL of 50% Matrigel / PBS mixture. Hun dred microliters of SU-DHL-6 cell suspensions, corresponding to 1.8 × 10^6 cells per mouse, were subcutaneously injected into the left flank region of NSFG mice (female, aged 8-10 weeks). The mice were monitored for tumor formation. […] Mice were sacrificed after 4 h and tissues (heart, liver, spleen, lung, kidney, and tumor) were obtained. The fluorescence signals in tissues were recorded using the […] imaging system.

For series [11], the target named is T6, BCL-2 in neuroblastoma tumor tissue sections (Homo sapiens, UniProt P10415).
T6 construct: from tissue; host or cells: human neuroblastoma tissue sections
T6 sequence (P10415 whole entry): as above
The series is described as follows: Pathological staining, colocalization with anti-BCL-2 antibody. Here is the method: as §2, §3, §4

In series [12] the target is T5, BCL-2. The series is described as follows: Fluorescence turn-on response / spectral assay with BCL-2. Type of series: binding. As to the method:
as §1

pIC50, pKd, pKi: −log10 of the molar value.

T5 sequence (P10415 whole entry, species assumed): as the sequence (P10415 whole entry) above
Sequence of tau aggregates in AD brain sections (P10636 623-695 limits assumed): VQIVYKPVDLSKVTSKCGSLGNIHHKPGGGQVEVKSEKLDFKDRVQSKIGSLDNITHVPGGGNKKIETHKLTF
T2 sequence (Q13148 whole entry): as the sequence (Q13148 whole entry) above

With `COc1cc(OCc2ccccn2)ccc1/C=C/C1=[O+][B-](F)(F)OC(/C=C/c2ccc3cc[nH]c3c2)=C1` [859-1], on tau aggregates [1], the “Fluorescence turn-on response to tau aggregates” value is recorded as “substantially increased fluorescence intensity”. In addition, the “Emission redshift when incubated with tau aggregates” value at tau aggregates [1] (probe 2 µM, tau aggregates 4 µM) is reported as 6 nm. Also, the “Fluorescence intensity variation under continuous illumination” value in series [2] came to 152%. Further, the λAbs turned out to be 539 nm in series [3] (DMSO); 513 nm in series [3] (EtOH, Extended Data Table 5); 510 nm in [3] (H2O, Extended Data Table 5); 514 nm in series [3] (MeCN, Extended Data Table 5); 514 nm in [3] (MeOH, Extended Data Table 5). In addition, the λEm in series [3] (DMSO) came to 610 nm; in series [3] (EtOH, Extended Data Table 5), 588 nm; in [3] (MeCN, Extended Data Table 5), 594 nm; in series [3] (MeOH, Extended Data Table 5) it was 595 nm. In addition, in series [3] (MeCN), the “Emission redshift compared to PE859” value is reported as 192 nm. In addition, in [3] (MeCN), the Quantum yield experimental was found to be 0.0063. Besides, the log10ε experimental in [3] (MeCN) is recorded as 4.9784. The “Fluorescence response to non-target analytes (selectivity)” value in series [4] is “minimal response to other analytes”. Further, in [5], the “Pearson Correlation Coefficient (PCC) with anti-tau antibody staining” value was determined as 0.95. Besides, the pKd at tau aggregates [6] was 6.66.
Take `Cc1ccc(Cl)cc1NC(=O)c1cc2c(=O)n3cccc(C)c3nc2n1C` [B3]: in series [7], the “PCC with anti-TDP-43 antibody staining” value turned out to be 0.95. Also, in [3] (MeCN), the Quantum yield experimental was 0.2891 and the log10ε experimental is on record as 4.2923. In series [3], the “λAbs b, spectra assays data” value was 370 nm; the “λEm b, spectra assays data” value is reported as 443 nm; the ε is given as 19600. On TDP-43 aggregates, the “Blue shift of emission upon interaction with TDP-43 aggregates” value is recorded as 30 nm and the “Fluorescence turn-on response to TDP-43 aggregates” value is on record as “most significant fluorescence enhancement”.
Take `Cn1c(C(=O)Nc2ccc(OC(F)(F)F)cc2)cc2c(=O)n3ccccc3nc21` [B5]: in series [3], the “λAbs b, spectra assays data” value is given as 382 nm; the “λEm b, spectra assays data” value is 450 nm; the ε worked out at 19800.
The like results for `Cc1ccc(-n2c(/C=C\c3ccc(F)c(F)c3)nc3ccccc3c2=O)c(C)c1` [B6] were, in that order, 330 nm, 450 nm and 20200.
For the compound `COc1cc(OCc2ccccn2)ccc1/C=C/c1cc(/C=C/c2ccc3cc[nH]c3c2)[nH]n1` [PE859], the pIC50 in the series with tau is 6.18. Moreover, on tau aggregates [1], the “Blue shift in emission maximum upon binding to tau aggregates” value is listed as 10 nm and the “Fluorescence turn-on response to tau aggregates” value is “most significant fluorescence enhancement”. In series [3] (DMSO), this compound registered a λAbs of 343 nm and a λEm of 408 nm. In series [3] (EtOH, Extended Data Table 5), the λAbs stood at 335 nm and the λEm is recorded as 397 nm. In series [3] (H2O, Extended Data Table 5), this compound yielded a λAbs of 352 nm and a λEm of 422 nm. Besides, in series [3] (MeCN), the Quantum yield experimental is 0.1223 and the log10ε experimental was found to be 4.9675. In addition, in series [3] (MeCN, Extended Data Table 5), the λAbs is 338 nm and the λEm is given as 402 nm. In series [3] (MeOH, Extended Data Table 5), this compound yielded a λAbs of 337 nm and a λEm of 410 nm. Also, in [3], the “λAbs b, spectra assays data” value worked out at 335 nm and the ε was 92780. In series [5], the “Pearson Correlation Coefficient (PCC) with anti-tau antibody staining” value is 0.85.
Turning to `COC1=CC(c2cc3ccccc3[nH]2)=N/C1=C\c1[nH]c(C)cc1C` [obatoclax], the “Detection of BCL-2 in overexpressing cell lines” value in [8] was “effectively detected”. The pKi at BCL-2 [9] is 6.66. The “Accumulation in tumors versus other organs” value in series [10] is given as “higher accumulation in tumors compared to other organs”. Further, in [11], the “PCC with anti-BCL-2 antibody staining” value amounted to 0.80. For the same compound, on BCL-2 [12], the “Blue shift of emission in the presence of BCL-2” value amounted to 7 nm and the “Fluorescence turn-on response to BCL-2” value is on record as “most significant fluorescence enhancement”. In series [3] (MeCN), this compound came in with a Quantum yield experimental of 0.0069 and a log10ε experimental of 4.5902. Also, in [3], the “λAbs b, spectra assays data” value worked out at 480 nm; the “λEm b, spectra assays data” value is 540 nm; the ε was determined as 38920.
